According to ChEMBL document CHEMBL3286276, “Novel estrogen receptor (ER) modulators containing various hydrophobic bent-core structures” (Bioorg Med Chem, 2014):

Legend:
[1] = target: T1, Estrogen receptor (Homo sapiens) (UniProt P03372); assay: Agonist activity at estrogen receptor in human MCF7 cells assessed as induction of cell proliferation at 1 x 10^-13 to 1 x 10^-5 M after 5 days by WST-8 assay relative to estradiol; format: cell-based
T1 sequence (whole entry): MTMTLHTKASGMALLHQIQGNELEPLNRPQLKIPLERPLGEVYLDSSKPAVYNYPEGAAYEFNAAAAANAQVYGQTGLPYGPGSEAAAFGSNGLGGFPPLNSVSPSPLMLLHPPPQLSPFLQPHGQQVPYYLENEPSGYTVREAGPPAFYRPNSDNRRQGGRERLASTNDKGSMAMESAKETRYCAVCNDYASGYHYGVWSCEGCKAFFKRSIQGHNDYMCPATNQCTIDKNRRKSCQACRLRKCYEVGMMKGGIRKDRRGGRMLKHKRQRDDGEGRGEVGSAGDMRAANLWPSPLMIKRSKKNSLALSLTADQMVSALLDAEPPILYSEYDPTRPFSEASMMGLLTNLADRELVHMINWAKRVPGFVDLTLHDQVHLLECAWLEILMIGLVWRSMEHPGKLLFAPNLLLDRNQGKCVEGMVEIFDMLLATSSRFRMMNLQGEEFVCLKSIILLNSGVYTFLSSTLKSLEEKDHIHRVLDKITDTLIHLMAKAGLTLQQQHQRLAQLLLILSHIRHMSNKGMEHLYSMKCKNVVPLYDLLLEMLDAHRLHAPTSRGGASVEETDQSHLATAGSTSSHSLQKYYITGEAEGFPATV

[2] = target: T1, Estrogen receptor (Homo sapiens); assay: Displacement of [6,7-3H]17beta-estradiol from human recombinant estrogen receptor-alpha after 18 hrs by liquid scintillation counting analysis

CN(C)CCOc1ccc(C23CC4CC(CC(c5ccc(O)cc5)(C4)C2)C3)cc1
Emax [1]: 17% | inhibition [2]: Dose-dependent effect
